Source: patent EP1342719B1, “Benzodiazepine derivatives useful as CCK-Receptor Antagonists” (Ferring BV, priority 1992, dated 1993)
Like-named read-outs stand apart in the source and are kept apart here.

Tests used:
[1] = system: pentagastrin-stimulated gastric acid secretion; assay: Inhibition of pentagastrin-stimulated gastric acid secretion in dog (Heidenhain pouch); assay type: in vivo, male beagle dogs; conditions: maximum inhibition of stimulated acid output, oral, pentagastrin 8 µg/kg/hr infusion, mean for 3 - 5 animals
Procedure: Assays were performed using male beagle dogs (7 - 12 kg) two months after surgical preparation of Heidenhain pouches following the conventional procedure. Each dog was used only once per week.
The animals were deprived of food with free access to water for 18 hr prior to the experiment. The gastric juice was collected from the gastric canula by gravity drainage every 15 min, and acid output was determined by automatic titration with 0.05 N NaOH to pH 7.0 (Comtite-7, Hiranuma, Tokyo, Japan). Drugs were administered orally 3 hr after the start of the pentagastrin (8 µg/kg/hr) infusion. The effect of each drug was calculated as the percentage inhibition of stimulated acid output. […] Each result is a mean for 3 - 5 animals.

CCK-B receptors = biological target: T1, CCK-B receptors (Rattus norvegicus, UniProt P30553); assay: Measurement of binding affinity for CCK-B receptors ([125I]BH-CCK-8 displacement, brain membrane preparation); parameters: species or system SD rats; conditions: for A/B Ratio: selectivity, ratio IC50 (CCK-A)/IC50 (CCK-B)
T1 construct: the whole brain was immediately excised from each of the rats and homogenized; from tissue; host or cells: SD rat whole-brain membrane preparation
T1 sequence (P30553 whole entry): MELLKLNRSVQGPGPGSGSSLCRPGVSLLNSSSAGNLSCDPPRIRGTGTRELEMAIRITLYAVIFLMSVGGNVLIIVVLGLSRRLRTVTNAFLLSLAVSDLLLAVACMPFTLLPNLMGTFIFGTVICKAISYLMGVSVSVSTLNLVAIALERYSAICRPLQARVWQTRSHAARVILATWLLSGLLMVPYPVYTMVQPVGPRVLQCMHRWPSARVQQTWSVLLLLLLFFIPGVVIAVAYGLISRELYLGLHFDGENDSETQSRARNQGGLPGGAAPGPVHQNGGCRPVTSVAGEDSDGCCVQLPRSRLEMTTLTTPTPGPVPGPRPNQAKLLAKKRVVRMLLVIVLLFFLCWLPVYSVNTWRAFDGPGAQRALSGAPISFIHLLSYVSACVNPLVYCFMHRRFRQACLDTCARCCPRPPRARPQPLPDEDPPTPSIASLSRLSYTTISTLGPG
Procedure: About 100 SD rats were decapitated without anaesthesia, the whole brain was immediately excised from each of the rats and homogenized in 10-fold volume of 0.32 M aqueous solution of sucrose by the use of a Teflon-coated homogenizer, the homogenate thus obtained was centrifuged for ten minutes at 900 g by the use of a cooled centrifuge, and the supernatant was further centrifuged for 15 minutes at 11500 g. The precipitate thus obtained was dispersed in 50 mM Tris-HCl buffer (pH 7.4) containing 0.08% Triton X-100, this suspension was allowed to stand for 30 minutes and again centrifuged for 15 minutes at 11500 g, the precipitate thus obtained was washed twice with 5 mM Tris-HCl buffer and twice with 50 mM Tris-HCl buffer in that order with centrifugal separation, the washed precipitate was suspended in 50 mM Tris-HCl buffer, and the suspension thus obtained was stored at -80°C until the membrane preparation was required.
The membrane preparations were warmed to room temperature, diluted with 10 mM HEPES buffer (containing 130 mM NaCl, 5 mM MgCl2, 1 mM EGTA and 0.25 mg/ml bacitracin; pH 6.5) and incubated at 25°C for 120 minutes in the presence of [^125I]BH-CCK-8 and the test compound, then separated by suction filtration. Non-specific binding was determined in the presence of 1 µM CCK-8. The amount of labelled ligand bound to the receptor was measured by the use of a γ-counter; IC50 values were determined, being that concentration of test compound required to inhibit specific binding by 50%.

CCK-A receptors = biological target: T2, CCK-A receptors (Rattus norvegicus, UniProt P30551); assay: Measurement of binding affinity for CCK-A receptors ([3H]L-364,718 displacement, pancreas membrane preparation); parameters: species or system SD rat
T2 construct: The pancreas of an SD rat was homogenized; from tissue; host or cells: SD rat pancreas membrane preparation
T2 sequence (P30551 1-444): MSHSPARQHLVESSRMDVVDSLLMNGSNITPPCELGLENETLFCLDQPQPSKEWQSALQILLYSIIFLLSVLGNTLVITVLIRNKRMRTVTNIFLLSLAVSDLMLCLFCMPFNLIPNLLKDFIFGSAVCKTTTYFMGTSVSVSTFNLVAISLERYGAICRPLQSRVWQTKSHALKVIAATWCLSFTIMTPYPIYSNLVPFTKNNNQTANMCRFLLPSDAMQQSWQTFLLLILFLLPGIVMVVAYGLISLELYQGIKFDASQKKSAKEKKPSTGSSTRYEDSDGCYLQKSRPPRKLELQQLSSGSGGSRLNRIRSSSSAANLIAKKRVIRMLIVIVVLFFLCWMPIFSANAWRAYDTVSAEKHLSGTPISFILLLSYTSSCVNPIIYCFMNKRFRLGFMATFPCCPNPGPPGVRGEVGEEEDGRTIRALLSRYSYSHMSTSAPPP
Procedure: The pancreas of an SD rat was homogenized in a 20-fold volume of 50 mM Tris-HCl buffer (pH 7.7) by the use of a Polytrone-type homogenizer, the homogenate was twice centrifuged for 10 minutes at 50000 g by the use of an ultra-centrifuge, the precipitate thus obtained was suspended in a 40-fold volume of 50 mM Tris-HCl buffer (containing 0.2% BSA, 5 mM MgCl2, 0.1 mg/ml bacitracin and 5 mM DTT; pH 7.7), and the suspension was stored at -80°C until the membrane preparations were required.
The membrane preparations were then warmed to room temperature, diluted 1:10 with the buffer and incubated at 37°C for 30 minutes in the presence of [^3H]L-364,718 and the test compound then separated by suction filtration. Non-specific binding was determined in the presence of 1 µM L-364,718. The amount of labelled ligand bound to the receptor was measured by the use of a liquid scintillation counter; IC50 values were determined, being that concentration of test compound required to inhibit specific binding by 50%

[2] = rat whole brain membranes, [125I]BH-CCK-8, 25°C, 120 minutes, read-out: Receptor binding affinity IC50(nM) CCK-B
[3] = rat pancreas membranes, [3H]L-364,718, 37°C, 30 minutes, read-out: Receptor binding affinity IC50(nM) CCK-A

SMILES | Inhibidon (dose) ([1]; 3 µmol/kg) | IC50 (CCK-B receptors) [nM] | A/B Ratio (CCK-B receptors) | IC50 (CCK-A receptors) [nM] | other results
Cc1cccc(NC(=O)NC2N=C(c3ccccn3)c3ccccc3N(CC(=O)C(C)(C)C)C2=O)c1 (racemic) [Example 27, N-((3RS)-1-tert-Butylcarbonylmethyl-2,3-dihydro-2-oxo-5-(2-pyridyl)-1H-1,4-benzodiazepin-3-yl)-N'-(3-methylphenyl) urea] | 66% (3 µmol/kg) | – | – | – | –
CCC(C)(C)C(=O)CN1C(=O)C(NC(=O)Nc2cccc(C)c2)N=C(c2ccccc2)c2ccccc21 (racemic) [Example 36, N-((3RS)-1-tert-Amylcarbonylmethyl-2,3-dihydro-2-oxo-5-phenyl-1H-1,4-benzodiazepin-3-yl)-N'-(3-methylphenyl) urea] | – | 0.57 | 1,300 | 720 | –
CCC(C)(C)C(=O)CN1C(=O)C(NC(=O)Nc2cccc(C(=O)O)c2)N=C(c2ccccc2)c2ccccc21 (racemic) [Example 37, N-((3RS)-1-tert-Amylcarbonylmethyl-2,3-dihydro-2-oxo-5-phenyl-1H-1,4-benzodiazepin-3-yl)-N'-(3-carboxyphenyl) urea] | – | 1.1 | 5,100 | 5600 | –
CN(C)c1cccc(NC(=O)NC2N=C(c3ccccn3)c3ccccc3N(CC(=O)C(C)(C)C)C2=O)c1 (racemic) [Example 38, N-((3RS)-1-tert-Butylcarbonylmethyl-2,3-dihydro-2-oxo-5-(2-pyridyl)-1H-1,4-benzodiazepin-3-yl)-N'-(3-dimethylaminophenyl) urea] | 100% (3 µmol/kg) | – | – | – | –
CC(C)(C)C(=O)CN1C(=O)C(NC(=O)Nc2cccc(C(=O)O)c2)N=C(c2ccccn2)c2ccccc21 (racemic) [Example 39, N-((3RS)-1-tert-Butylcarbonylmethyl-2,3-dihydro-2-oxo-5-(2-pyridyl)-1H-1,4-benzodiazepin-3-yl)-N'-(3-carboxyphenyl) urea] | – | 0.1 | 2,400 | 240 | –
CN(C)c1cccc(NC(=O)NC2N=C(c3ccccc3)c3ccccc3N(CC(=O)C(C)(C)C)C2=O)c1 (racemic) [Example 41, N-((3RS)-1-tert-Butylcarbonylmethyl-2,3-dihydro-2-oxo-5-phenyl-1H-1,4-benzodiazepin-3-yl)-N'-(3-dimethylaminophenyl) urea] | – | 6.2 | 1,100 | 6700 | –
CC(C)(C)C(=O)CN1C(=O)C(NC(=O)Nc2cccc([N+](=O)[O-])c2)N=C(c2ccccc2)c2ccccc21 (racemic) [Example 45, N-((3RS)-1-tert-Butylcarbonylmethyl-2,3-dihydro-2-oxo-5-phenyl-1H-1,4-benzodiazepin-3-yl)-N'-(3-nitrophenyl) urea] | – | – | 3,700 | 590 | –
Cc1cccc(NC(=O)N[C@@H]2N=C(c3ccccc3)c3ccccc3N(CC(=O)C(C)(C)C)C2=O)c1 [Example 26, N-((3R)-1-tert-Butylcarbonylmethyl-2,3-dihydro-2-oxo-5-phenyl-1H-1,4-benzodiazepin-3-yl)-N'-(3-methylphenyl) urea] | 53% (3 µmol/kg) | – | – | – | –
CNc1cccc(NC(=O)N[C@@H]2N=C(c3ccccc3)c3ccccc3N(CC(=O)C(C)(C)C)C2=O)c1 [Example 56, N-((3R)-1-tert-Butylcarbonylmethyl-2,3-dihydro-2-oxo-5-phenyl-1H-1,4-benzodiazepin-3-yl)-N'-(3-methylaminophenyl) urea] | – | – | 1,100 | – | IC50 (CCK-B receptors; [2]): 0.11 nM; IC50 (CCK-A receptors; [3]): 120 nM
CN(C)c1cccc(NC(=O)N[C@@H]2N=C(c3ccccc3)c3ccccc3N(CC(=O)C(C)(C)C)C2=O)c1 [Example 64, N-((3R)-1-tert-Butylcarbonylmethyl-2,3-dihydro-2-oxo-5-phenyl-1H-1,4-benzodiazepin-3-yl)-N'-(3-dimethylaminophenyl) urea] | 100% (3 µmol/kg) | – | – | – | –
CC(C)(C)C(=O)CN1C(=O)[C@H](NC(=O)Nc2cccc(N)c2)N=C(c2ccccc2)c2ccccc21 [Example 66, N-((3R)-1-tert-Butylcarbonylmethyl-2,3-dihydro-2-oxo-5-phenyl-1H-1,4-benzodiazepin-3-yl)-N'-(3-aminophenyl) urea] | – | – | 1,900 | – | IC50 (CCK-B receptors; [2]): 0.5 nM; IC50 (CCK-A receptors; [3]): 950 nM
Cc1cccc(NC(=O)N[C@@H]2N=C(c3ccccc3)c3ccccc3N(C)C2=O)c1 [reference compound] | – | – | 410 | – | Inhibidon (dose) ([1]; 100 µmol/kg): 0% (100 µmol/kg); IC50 (CCK-B receptors; [2]): 29 nM; IC50 (CCK-A receptors; [3]): 12000 nM
